Patent EP1834952A1, “Compound for promoting the growth of neural cells” (NatureWise Biotech & Medicals Corporation, priority 2006, dated 2007)

Assays:
Format in all cases: cell-based, Wistar rat
cortical neurons [1] = experiment: Neurite length of cortical neurons cultivated at low density, by microscope (Example 4); settings: 38 cells/mm^2, 5 days; for growth of neurons and neurites under microscope: in the control all neural cells are dead
Protocol: (§1) Cells obtained from the suspension prepared in Example 1 were cultivated at a density of 38 cells/ mm^2 in 6-well plates coated with 30 µg/ml poly-D-lysine (Sigma) at 37°C, 5% CO2 and 95% relative humidity. The growth media contained compounds A, B, D, and G respectively and the growth media added with 5 µl of DMSO were used as control. The differentiated cells are categorically called cortical neurons.
The experiments were repeated three times. After cultivating for 5 days, the cells were observed under microscope and the length of the neurites was measured.

neural stem cells = experiment: Differentiation of NSCs from neurospheres, MAP-2 immunofluorescent staining (Examples 5 and 6)
Protocol: In the beginning of cultivating NSCs, either compound A or EGF was added into the growth media. The cells were cultivated for 3 days and the cells would aggregate to form neurospheres. One hundred µl of the cell suspension was aspirated and diluted to 1 ml. 250 µl of the supernatant which contained neurospheres was aspirated and placed on the cover slides coated with 30 µg/ml poly-D-lysine (Sigma). After all the cells had been attached onto the slides, the media was removed and replaced with the cultivating media containing compound A (FIG. 5A), EGF (FIG. 5C), or none of the growth factors (FIG. 5B, compound A in the beginning; FIG 5D, EGF in the beginning). The cells were cultivated for another 3 days at the same condition as described above so that the cells would differentiate into cortical neurons.
The cells were stained with a known immunofluorescent staining method. To stain the neurons, a neurological marker of MAP-2 (microtubule-associated protein 2) antibody was used as the primary antibody and a fluorescent material-labeled mouse immunoglobulin that identified primary antibody was used as the second antibody. After the primary antibody that had been bound onto the neurons was identified and bound by the secondary antibody, the neurons emit fluorescent light under the excitation of a specific light source.
The procedures were similar to Example 5. However, in the beginning of cultivating the neural stem cells, both compound D and EGF were added into the media. After all the cells had been attached onto the slides, the media were removed and replaced with the cultivating media containing compound D (FIG. 6B), EGF (FIG. 6C), none of the growth factors (FIG. 6D), or both compound D and EGF (FIG. 6A). The cells were cultivated for another 3 days and the cell morphology was observed thereafter by using immunofluorescent staining technique.

cortical neurons [2] = experiment: Survival of cortical neurons, live cell count by MTT assay (Examples 2 and 3); settings: 300 cells/mm^2; 5 days; versus DMSO control; FIG. 2
Protocol: as §1, with “cultivated” for “cultivated at a density of 38 cells/ mm^2”, “µg/ml of” for “µg/ml”, “(Sigma) at 300 cells/mm^2 and cultivated” for “(Sigma)”, “D, E, F, G,” for “D,”, “and H” for “and G”, “cells after cultivation were” for “cells are”
The experiments were repeated three times. After cultivating for 5 days, live cells were counted by a known cell-counting method (MTT assay) and the absorbance was read at 540 nm.
as §1, with “150 or 300 cells/mm^2” for “38 cells/ mm^2”, “A,” for “A, B,”
The experiments were repeated three times. After cultivating for 5 days, the live cells were counted by a known cell-counting method (MTT assay) and the absorbance was read at 540 nm.

NSCs = experiment: Continuous cultivation of NSCs for 30 days, morphology and later differentiation (Example 7)
Protocol: As in Example 1, the NSCs were cultivated continuously and the growth media were replaced every seven days. DMSO-added growth media were used as the negative control. After 30 days, 100 µl of the cell suspension was aspirated and diluted to 1 ml. 250 µl of the supernatant was aspirated and placed on the slides coated with 30 µg/ml poly-D-lysine (Sigma). The cell morphology was observed thereafter under a microscope.
Unlike the normal neural stem cells, the cells lose their propensity to aggregate and form spheres, and the cells become atrophic in the cultivating suspension. […] These cells were cultivated for another 3 days and the cells were stained with immunofluorescence the same as in Example 5.

Row | Structure (SMILES) | length of neurites, L1 (cortical neurons [1]; 5 µM) [µm] | neurites extending out of each soma (cortical neurons [1]; 5 µM) | growth of neurons and neurites under microscope (cortical neurons [1]; 5 µM) | differentiation of NSCs (MAP-2 staining) (neural stem cells; both compound D and EGF in the beginning, compound D thereafter, FIG. 6B) | absorbance at 540 nm (live cells, MTT assay) (cortical neurons [2]) | length of neurites, L1 (cortical neurons [1]; 2.5 µM) [µm] | length of neurites, L2 (cortical neurons [1]; 2.5 µM) [µm] | neurites extending out of each soma (cortical neurons [1]; 2.5 µM) | growth of neurons and neurites under microscope (cortical neurons [1]; 2.5 µM) | differentiation of NSCs (MAP-2 staining) (neural stem cells; supplemented in the beginning (3 days) and thereafter at seeding on slides (another 3 days), FIG. 5A/5C) | differentiation of NSCs (MAP-2 staining) (neural stem cells; supplemented in the beginning only, none thereafter, FIG. 5B/5D) | cell morphology of NSCs after 30 days (NSCs; media replaced every seven days, almost no surviving cells in DMSO control, FIG. 7B) | differentiation of 30-day neurospheres (immunofluorescence) (NSCs; then another 3 days on slides, FIG. 7C) | length of neurites, L2 (cortical neurons [1]; 5 µM) [µm]
1 | CC(C)=CCC/C(C)=C/Cc1c([C@@H]2CC(=O)c3c(O)cc(O)cc3O2)ccc(O)c1O [compound D] | 211 | at least 3 | continuous growth of the neurons and the extension of the neurites can be observed | the cells will differentiate into neurons | best results |  |  |  |  |  |  |  |  | 
2 | C/C(=C\Cc1cc([C@@H]2CC(=O)c3c(O)cc(O)cc3O2)cc(O)c1O)CCCC(C)(C)O [compound B] | 235 | at least 3 | continuous growth of the neurons and the extension of the neurites can be observed |  |  |  |  |  |  |  |  |  |  | 
3 | C/C(=C\Cc1c([C@@H]2CC(=O)c3c(O)cc(O)cc3O2)ccc(O)c1O)CCCC(C)(C)O [compound A] |  |  |  |  | best results | 236 | 161 | at least 3 | continuous growth of the neurons and the extension of the neurites can be observed | the cells will differentiate into neurons | the cells will differentiate into neurons | can maintain the characteristics of forming spherical clusters | differentiating normally into neurons with the continuous outgrowth of neurites | 
4 | CC(C)=CCC/C(C)=C/Cc1c(O)cc2c(c1O)C(=O)C[C@@H](c1ccc(O)c(O)c1CC=C(C)C)O2 [compound G] | 316 | at least 3 | continuous growth of the neurons and the extension of the neurites can be observed |  | best results |  |  |  |  |  |  |  |  | 216
